Entries after “also recorded” stand apart in the source; their conditions may differ.
Columns and labels:
HRase [1] = assay: Effect of various reagents such as enzyme inhibitors on HRase activity (residual activity); assay type: biochemical, Microbacterium liquefaciens AJ3912; conditions: for effect of reagent on HRase activity (in words): purified HRase pre-incubated with reagent; for Residual Activity (%): relative to activity without reagent (100%), pre-incubation 0° C. 30 min pH 8.0, reaction pH 8.0, 30° C., 30 min, concentration in reaction: NEM 5 mM, CuSO4 2.5 mM, IAA 10 mM, EDTA 10 mM, Methanol 10% (v/v)
Method: (§1) Specifically, a reaction solution containing 120 mg/dl L- or D-benzyl hydantoin (BH), 50 mM dibasic potassium phosphate buffer (KPB) (pH 8.0), 5 mM dithiothreitol (DTT) and an HRase enzyme solution was incubated at 37° C. for 30 minutes, and the reaction was stopped by adding a 9-fold excess volume of 1.1 mM CuSO4 and 11.1 mM H3PO4 solution. The precipitates were removed by centrifugation at 20,000 g×10 minutes, and the amount of racemized BH was quantitatively determined by HPLC to estimate the racemization activity. The enzyme activity causing racemization of 1 μmol BH per minute under these conditions was defined as 1 U of the enzyme activity.
1.5 μg/ml purified HRase was pre-incubated at 0° C. for 30 minutes at pH 8.0 with 25 mM DTT, 25 mM N-ethylmaleimide (NEM), 12.5 mM CuSO4, 50 mM monoiodoacetic acid (IAA), 50 mM EDTA or 50% (v/v) methanol. As the enzyme source, each of these mixtures was reacted at pH 8.0, at 30° C. for 30 minutes to measure the residual activity, and the susceptibility of the HRase to each inhibitor was determined. The concentration of each of the enzyme and the inhibitor during the reaction was about ⅕ relative to the concentration during the pre-incubation.
The residual activity was shown as relative activity to the activity (100%) in the absence of the reagent (see Table 2).

HRase [2] = assay: Racemization of BH by purified HRase (substrate recognition); assay type: biochemical, Microbacterium liquefaciens AJ3912; conditions: 0.3 mg/ml purified HRase, 37° C., pH 8.0
Method: (§2) A reaction solution containing 0.3 mg/ml purified HRase, 0.12 g/dl D- or L-BH, 50 mM KPB (pH 8.0) and 5 mM DTT was incubated at 37° C. and sampled with time to quantify the amount of BH by HPLC. As the control, the same experiment was performed in an experimental group not containing the enzyme, to quantify the spontaneous racemization of BH.

HRase [3] = assay: Racemization of optically active 5-substituted hydantoin compounds other than BH (D-amino acid formation with AJ 11220 and HRase, TLC); assay type: biochemical, Microbacterium liquefaciens AJ3912; conditions: 1 g/dl substrate, 1.3 μg/ml purified HRase, 2 g/dl wet AJ 11220, 37° C., 22 hours, optical resolution TLC
Method: The ability of the present HRase to catalyze racemization of optically active 5-substituted hydantoin compounds other than BH was examined. The formation of D-amino acid from L-5-substituted hydantoin by a combination of Pseudomonas sp. AJ 11220 and HRase was confirmed in the same manner as in Example 8.
1 g/dl 5-substituted hydantoin of various kinds, together with 1.3 μg/ml purified HRase, 0.1 M KPB (pH 8.0), 0.5 mM CoCl2 and 2 g/dl wet AJ 11220, was subjected to stationary reaction at 37° C. for 22 hours. Each hydantoin consisted of D- and L-isomers as the substrate, and it was confirmed that D-amino acid was formed from the D-isomer substrate in the absence of HRase, and also that D-amino acid was not formed from the L-isomer substrate in the absence of HRase, and then it was judged that when D-amino acid was formed from the L-isomer substrate in the presence of HRase, the substrate was recognized. The formation of D-amino acid was qualitatively estimated by development with optical resolution TLC (MERCK, HPTLC CHIR) with methanol:H2O:acetonitrile=1:1:4.

[4] = HRase activity measurement: racemization of BH quantified by HPLC (specific activity of purified HRase); assay type: biochemical, Microbacterium liquefaciens AJ3912
Method: Measurement of the HRase activity of the HRase of the present invention can be carried out by measuring a change in the optical rotation as the degree of racemization of the optically active D- or L-5-substituted hydantoin compound as the substrate or by high performance liquid chromatography (HPLC) using an optical resolution column.
as §1
The quantitative analysis of optically active BH by analysis in HPLC was conducted by use of Daicel Chemical CHIRALPAK WH 0.46 cmφ×25 cm. The analysis conditions are as follows:
as §2

[5] = Production of D-Phe from DL-BH or L-BH by a combination of Agrobacterium sp. AJ11220 and HRase; assay type: biochemical; conditions: reaction 30 hours
Method: 0.5 g/dl (26 mM) DL-BH or L-BH, together with 0.84 μg/ml purified HRase, 0.1 M KPB (pH 8.0), 0.5 mM CoCl2 and 2 g/dl wet AJ11220 microorganism, was subjected to stationary reaction at 30° C. Oxygen was previously removed from the reaction solution by replacing it by nitrogen. The reaction solution was sampled with time and analyzed by HPLC to quantify the formed D-Phe.

[6] = calculated from initial reaction rate, 37° C., pH 8.0, 5 mM DTT

Molecule: O[C@H](CS)[C@H](O)CS (racemic) [DTT, dithiothreitol]
- effect of reagent on HRase activity (in words) (HRase [1]): activated

Molecule: O=S(=O)([O-])[O-].[Cu+2] [CuSO4]
- effect of reagent on HRase activity (in words) (HRase [1]; listed as Cu^2+): significantly inhibited
- effect of reagent on HRase activity (in words) (HRase [1]; listed as copper ion): strongly inhibited
- Residual Activity (%) (HRase [1]): 0%

Molecule: O=C1NC(=O)[C@@H](Cc2ccccc2)N1 [D-BH, D-benzyl hydantoin]
- recognition as substrate by HRase (HRase [2]): recognized

Molecule: O=C(O)CN(CCN(CC(=O)O)CC(=O)O)CC(=O)O [EDTA, ethylenediaminetetraacetic acid]
- effect of reagent on HRase activity (in words) (HRase [1]): no significant inhibitory effect; also recorded: minimally inhibited
- Residual Activity (%) (HRase [1]): 86%

Molecule: O=C(O)CI [IAA, monoiodoacetic acid]
- effect of reagent on HRase activity (in words) (HRase [1]): strongly inhibited
- effect of reagent on HRase activity (in words) (HRase [1]; listed as iodoacetic acid): significantly inhibited
- Residual Activity (%) (HRase [1]): 0%

Molecule: O=C1NC(=O)[C@H](Cc2ccc(O)cc2)N1 [L-5-(p-hydroxybenzyl) hydantoin]
- racemization by HRase (D-amino acid formed from L-isomer substrate, qualitative) (HRase [3]): racemized

Molecule: O=C1NC(=O)[C@H](Cc2c[nH]c3ccccc23)N1 [L-5-indolyl methyl hydantoin]
- racemization by HRase (D-amino acid formed from L-isomer substrate, qualitative) (HRase [3]): racemized

Molecule: CC(C)C[C@@H]1NC(=O)NC1=O [L-5-isobutyl hydantoin]
- racemization by HRase (D-amino acid formed from L-isomer substrate, qualitative) (HRase [3]): racemized

Molecule: O=C1NC(=O)[C@H](Cc2ccccc2)N1 [L-BH, L-benzyl hydantoin]
- recognition as substrate by HRase (HRase [2]): recognized

Molecule: CO [Methanol, methanol]
- effect of reagent on HRase activity (in words) (HRase [1]): did not influence
- Residual Activity (%) (HRase [1]): 99%

Molecule: CCN1C(=O)C=CC1=O [NEM, N-ethylmaleimide]
- effect of reagent on HRase activity (in words) (HRase [1]): significantly inhibited; also recorded: strongly inhibited
- Residual Activity (%) (HRase [1]): 0%

B1: HRase: 5-substituted hydantoin racemase from Microbacterium liquefaciens AJ3912, amino acid sequence SEQ ID NO:2 (protein)
chain: MRIHVINPNSSVDLTDAVAEAARSVVSPGTTITAVNPSKGPTVIEGSYDEVLATYHLVEEVRRAEREDRPDAYVIACFGDPGLDAVRELTDRPVVGIAEAAIQMTSFVAASFSIVSILPRVRKHLHELVHRAGATDRLASLKLPDLGVLAFHEDEAAAFETLRRVAGEAVREDGAESIVLGCAGMAGFARQLSEELGVPVIDAVEAACRVAESLVALGYRTSKANTYQAPTEKQYL
- specific activity of the purified HRase ([4]; after purification (Example 1), 1 U = racemization of 1 μmol BH per minute): 79 U/mg
- specific activity of the purified HRase, formation of D-BH from L-BH [4, 6]: 100 U/mg
- specific activity of the purified HRase, formation of L-BH from D-BH [4, 6]: 79 U/mg
- amount of D-Phe formed from DL-BH ([5]; HRase added (0.84 μg/ml), 26 mM DL-BH, 2 g/dl wet AJ11220, 30° C.): 24.6 mM
- amount of D-Phe formed from L-BH ([5]; HRase added (0.84 μg/ml), 26 mM L-BH, 2 g/dl wet AJ11220, 30° C.): 24.6 mM
- molar yield of D-Phe from DL-BH ([5]; HRase added, 26 mM DL-BH): 94%
- molar yield of D-Phe from L-BH ([5]; HRase added, 26 mM L-BH): 94%

Source: patent publication US6815195B2, “5-substituted hydantoin racemase, DNA coding for the racemase, and processes for producing optically active amino acids” (Ajinomoto Co. Inc., priority 2000, dated 2004)
